Data reported in ChEMBL document CHEMBL5346952, “Dimer Peptide Ligands of Vascular Endothelial Growth Factor: Optimizing Linker Length for High Affinity and Antiangiogenic Activity” (J Med Chem, 2023).
Starred links: 1 amine or outer side, 2 acyl side, 3 side chain; linkers in the order of their positions; H or OH if unused. Positions of bridges follow the written chain, without caps; N, C: chain ends. Residues, ends and D or L forms follow the SMILES beside them. Chains are numbered I, II in the order given. CO(CH2)2(OCH2CH2)17CO = O=C(CCOCCOCCOCCOCCOCCOCCOCCOCCOCCOCCOCCOCCOCCOCCOCCOCCOCCC(=O)[*:2])[*:1]; X3 = O=C(CCOCCOCCOCCOCCOCCOCCOCCOCCOCCOCCOCCOCCOCCOCCOCCOCCOCCOCCOCCOCCOCCC(=O)[*:2])[*:1]; CO(CH2CH2O)13CH2CH2CO = O=C(CCOCCOCCOCCOCCOCCOCCOCCOCCOCCOCCOCCOCCOCCC(=O)[*:2])[*:1]; CO(CH2CH2O)9CH2CH2CO = O=C(CCOCCOCCOCCOCCOCCOCCOCCOCCOCCC(=O)[*:2])[*:1]

Key:
[1] = molecular target: T1, Vascular endothelial growth factor A, long form (Homo sapiens) (UniProt P15692); experiment: Binding affinity to human VEGF (13 to 107 residues) expressed in Escherichia coli Rosetta (DE3) cells assessed as Gibbs free energy change at 37 degreeC by isothermal titration calorimetry analysis
T1 sequence (whole entry): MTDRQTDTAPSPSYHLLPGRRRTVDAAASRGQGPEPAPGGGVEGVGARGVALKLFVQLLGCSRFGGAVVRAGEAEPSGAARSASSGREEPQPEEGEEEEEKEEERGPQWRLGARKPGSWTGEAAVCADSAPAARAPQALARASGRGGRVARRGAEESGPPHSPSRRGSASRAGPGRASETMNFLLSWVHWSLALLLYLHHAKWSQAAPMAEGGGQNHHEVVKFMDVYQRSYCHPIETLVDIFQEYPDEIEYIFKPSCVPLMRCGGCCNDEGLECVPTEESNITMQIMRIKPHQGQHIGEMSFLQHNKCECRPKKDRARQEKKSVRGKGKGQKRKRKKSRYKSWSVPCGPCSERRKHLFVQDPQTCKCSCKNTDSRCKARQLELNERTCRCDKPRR

[2] = molecular target: T1, Vascular endothelial growth factor A, long form (Homo sapiens); experiment: Binding affinity to human VEGF (13 to 107 residues) expressed in Escherichia coli Rosetta (DE3) cells assessed as change in entropy at 20 degreeC by isothermal titration calorimetry analysis
[3] = molecular target: T1, Vascular endothelial growth factor A, long form (Homo sapiens); experiment: Binding affinity to human VEGF (13 to 107 residues) expressed in Escherichia coli Rosetta (DE3) cells assessed as change in entropy at 37 degreeC by isothermal titration calorimetry analysis
[4] = tested on: HUVEC; experiment: Antiangiogenic activity in human HUVEC cells assessed as inhibition of VEGFA-induced capillary tube formation incubated for 6 hrs by matrigel based microscopic analysis; format: functional, cell-based
[5] = molecular target: T2, Vascular endothelial growth factor A, long form (Homo sapiens, UniProt P15692); experiment: Binding affinity to human VEGF (13 to 107 residues) expressed in Escherichia coli Rosetta (DE3) cells assessed as dissociation constant at 37 degreeC by isothermal titration calorimetry analysis
T2 sequence (P15692 whole entry): T1 sequence (whole entry)

[6] = molecular target: T1, Vascular endothelial growth factor A, long form (Homo sapiens); experiment: Binding affinity to human VEGF (13 to 107 residues) expressed in Escherichia coli Rosetta (DE3) cells assessed as change in enthalpy at 20 degreeC by isothermal titration calorimetry analysis
[7] = molecular target: T1, Vascular endothelial growth factor A, long form (Homo sapiens); experiment: Binding affinity to human VEGF (13 to 107 residues) expressed in Escherichia coli Rosetta (DE3) cells assessed as change in enthalpy at 37 degreeC by isothermal titration calorimetry analysis
[8] = tested on: HUVEC; experiment: Antiangiogenic activity in human HUVEC cells assessed as inhibition of VEGFA-induced cell migration incubated for 12 hrs by wound healing assay; format: functional, cell-based
[9] = molecular target: T2, Vascular endothelial growth factor A, long form; experiment: Binding affinity to human VEGF (13 to 107 residues) expressed in Escherichia coli Rosetta (DE3) cells assessed as dissociation constant at 20 degreeC by isothermal titration calorimetry analysis
[10] = molecular target: T1, Vascular endothelial growth factor A, long form (Homo sapiens); experiment: Binding affinity to human VEGF (13 to 107 residues) expressed in Escherichia coli Rosetta (DE3) cells assessed as change in heat capacity at 20 degreeC by isothermal titration calorimetry analysis
[11] = molecular target: T1, Vascular endothelial growth factor A, long form (Homo sapiens); experiment: Binding affinity to human VEGF (13 to 107 residues) expressed in Escherichia coli Rosetta (DE3) cells assessed as Gibbs free energy change at 20 degreeC by isothermal titration calorimetry analysis

SMILES: CC[C@H](C)[C@@H]1NC(=O)[C@H](CC(=O)O)NC(=O)[C@@H](NC(C)=O)CSSC[C@@H]2NC(=O)[C@H](CCCCNC(=O)C[C@@H](C(=O)N[C@@H](CC(C)C)C(N)=O)NC(=O)[C@H](CCC(=O)O)NC(=O)[C@H](Cc3ccccc3)NC2=O)NC(=O)[C@H](Cc2c[nH]c3ccccc23)NC(=O)[C@H](CCC(=O)O)NC(=O)[C@H](Cc2c[nH]c3ccccc23)NC(=O)[C@H](CCCCNC(C)=O)NC(=O)[C@H](C(C)C)NC(=O)[C@H](Cc2cnc[nH]2)NC1=O (Ac-CDIHVK(Ac)WEWKCFEDL-NH2; disulfide 1-11; lactam 10-14)
- deltaG [1]: -9.32 kcal/mol
- -TdeltaS [2]: 9.66 kcal/mol
- -TdeltaS [3]: 16.2 kcal/mol
- Activity [4]: Dose-Dependent Effect
- Kd [5]: 272 nM
- deltaH [6]: -19.5 kcal/mol
- deltaH [7]: -25.5 kcal/mol
- Activity [8]: Dose-Dependent Effect
- Kd [9]: 50 nM
- DeltaCp [10]: -0.36 kcal/mol/K
- deltaG [11]: -9.79 kcal/mol

SMILES: CC[C@H](C)[C@@H]1NC(=O)[C@H](CC(=O)O)NC(=O)[C@@H](NC(C)=O)CSSC[C@@H]2NC(=O)[C@H](CCCCNC(=O)C[C@@H](C(=O)N[C@@H](CC(C)C)C(N)=O)NC(=O)[C@H](CCC(=O)O)NC(=O)[C@H](Cc3ccccc3)NC2=O)NC(=O)[C@H](Cc2c[nH]c3ccccc23)NC(=O)[C@H](CCC(=O)O)NC(=O)[C@H](Cc2c[nH]c3ccccc23)NC(=O)[C@H](CCCCN)NC(=O)[C@H](C(C)C)NC(=O)[C@H](Cc2cnc[nH]2)NC1=O (Ac-CDIHVKWEWKCFEDL-NH2; disulfide 1-11; lactam 10-14)
- Kd [5]: 573 nM
- Kd [9]: 129 nM

SMILES: CC[C@H](C)[C@@H]1NC(=O)[C@H](CC(=O)O)NC(=O)[C@@H](NC(C)=O)CSSC[C@@H]2NC(=O)[C@H](CCCCNC(=O)C[C@@H](C(=O)N[C@@H](CC(C)C)C(N)=O)NC(=O)[C@H](CCC(=O)O)NC(=O)[C@H](Cc3ccccc3)NC2=O)NC(=O)[C@H](Cc2c[nH]c3ccccc23)NC(=O)[C@H](CCC(=O)O)NC(=O)[C@H](Cc2c[nH]c3ccccc23)NC(=O)[C@H](CCCCNC(=O)CCOCCOCCOCCOCCOCCOCCOCCOCCOCCOCCOCCOCCOCCOCCOCCOCCOCCC(=O)NCCCC[C@@H]2NC(=O)[C@H](C(C)C)NC(=O)[C@H](Cc3cnc[nH]3)NC(=O)[C@H]([C@@H](C)CC)NC(=O)[C@H](CC(=O)O)NC(=O)[C@@H](NC(C)=O)CSSC[C@@H]3NC(=O)[C@H](CCCCNC(=O)C[C@@H](C(=O)N[C@@H](CC(C)C)C(N)=O)NC(=O)[C@H](CCC(=O)O)NC(=O)[C@H](Cc4ccccc4)NC3=O)NC(=O)[C@H](Cc3c[nH]c4ccccc34)NC(=O)[C@H](CCC(=O)O)NC(=O)[C@H](Cc3c[nH]c4ccccc34)NC2=O)NC(=O)[C@H](C(C)C)NC(=O)[C@H](Cc2cnc[nH]2)NC1=O (I: Ac-CDIHVKWEWKCFEDL-NH2 / II: Ac-CDIHVKWEWKCFEDL-NH2; disulfide I:1-I:11, II:1-II:11; linker I:6-II:6 via CO(CH2)2(OCH2CH2)17CO; lactam I:10-I:14, II:10-II:14)
- deltaG [1]: -10.4 kcal/mol
- -TdeltaS [2]: 27.9 kcal/mol
- -TdeltaS [3]: 37.9 kcal/mol
- Kd [5]: 51 nM
- deltaH [6]: -38.1 kcal/mol
- deltaH [7]: -48.3 kcal/mol
- Kd [9]: 22 nM
- DeltaCp [10]: -0.6 kcal/mol/K
- deltaG [11]: -10.3 kcal/mol

SMILES: CC[C@H](C)[C@@H]1NC(=O)[C@H](CC(=O)O)NC(=O)[C@@H](NC(C)=O)CSSC[C@@H]2NC(=O)[C@H](CCCCNC(=O)C[C@@H](C(=O)N[C@@H](CC(C)C)C(N)=O)NC(=O)[C@H](CCC(=O)O)NC(=O)[C@H](Cc3ccccc3)NC2=O)NC(=O)[C@H](Cc2c[nH]c3ccccc23)NC(=O)[C@H](CCC(=O)O)NC(=O)[C@H](Cc2c[nH]c3ccccc23)NC(=O)[C@H](CCCCNC(=O)CCOCCOCCOCCOCCOCCOCCOCCOCCOCCC(=O)NCCCC[C@@H]2NC(=O)[C@H](C(C)C)NC(=O)[C@H](Cc3cnc[nH]3)NC(=O)[C@H]([C@@H](C)CC)NC(=O)[C@H](CC(=O)O)NC(=O)[C@@H](NC(C)=O)CSSC[C@@H]3NC(=O)[C@H](CCCCNC(=O)C[C@@H](C(=O)N[C@@H](CC(C)C)C(N)=O)NC(=O)[C@H](CCC(=O)O)NC(=O)[C@H](Cc4ccccc4)NC3=O)NC(=O)[C@H](Cc3c[nH]c4ccccc34)NC(=O)[C@H](CCC(=O)O)NC(=O)[C@H](Cc3c[nH]c4ccccc34)NC2=O)NC(=O)[C@H](C(C)C)NC(=O)[C@H](Cc2cnc[nH]2)NC1=O (I: Ac-CDIHVKWEWKCFEDL-NH2 / II: Ac-CDIHVKWEWKCFEDL-NH2; disulfide I:1-I:11, II:1-II:11; linker I:6-II:6 via CO(CH2CH2O)9CH2CH2CO; lactam I:10-I:14, II:10-II:14)
- deltaG [1]: -10 kcal/mol
- -TdeltaS [2]: 22.6 kcal/mol
- -TdeltaS [3]: 32.1 kcal/mol
- Kd [5]: 90 nM
- deltaH [6]: -32.8 kcal/mol
- deltaH [7]: -42.1 kcal/mol
- Kd [9]: 26 nM
- DeltaCp [10]: -0.55 kcal/mol/K
- deltaG [11]: -10.2 kcal/mol

SMILES: CC[C@H](C)[C@@H]1NC(=O)[C@H](CC(=O)O)NC(=O)[C@@H](NC(C)=O)CSSC[C@@H]2NC(=O)[C@H](CCCCNC(=O)C[C@@H](C(=O)N[C@@H](CC(C)C)C(N)=O)NC(=O)[C@H](CCC(=O)O)NC(=O)[C@H](Cc3ccccc3)NC2=O)NC(=O)[C@H](Cc2c[nH]c3ccccc23)NC(=O)[C@H](CCC(=O)O)NC(=O)[C@H](Cc2c[nH]c3ccccc23)NC(=O)[C@H](CCCCNC(=O)CCOCCOCCOCCOCCOCCOCCOCCOCCOCCOCCOCCOCCOCCC(=O)NCCCC[C@@H]2NC(=O)[C@H](C(C)C)NC(=O)[C@H](Cc3cnc[nH]3)NC(=O)[C@H]([C@@H](C)CC)NC(=O)[C@H](CC(=O)O)NC(=O)[C@@H](NC(C)=O)CSSC[C@@H]3NC(=O)[C@H](CCCCNC(=O)C[C@@H](C(=O)N[C@@H](CC(C)C)C(N)=O)NC(=O)[C@H](CCC(=O)O)NC(=O)[C@H](Cc4ccccc4)NC3=O)NC(=O)[C@H](Cc3c[nH]c4ccccc34)NC(=O)[C@H](CCC(=O)O)NC(=O)[C@H](Cc3c[nH]c4ccccc34)NC2=O)NC(=O)[C@H](C(C)C)NC(=O)[C@H](Cc2cnc[nH]2)NC1=O (I: Ac-CDIHVKWEWKCFEDL-NH2 / II: Ac-CDIHVKWEWKCFEDL-NH2; disulfide I:1-I:11, II:1-II:11; linker I:6-II:6 via CO(CH2CH2O)13CH2CH2CO; lactam I:10-I:14, II:10-II:14)
- deltaG [1]: -10.3 kcal/mol
- -TdeltaS [2]: 26 kcal/mol
- -TdeltaS [3]: 35.7 kcal/mol
- Kd [5]: 56 nM
- deltaH [6]: -36.3 kcal/mol
- deltaH [7]: -46 kcal/mol
- Kd [9]: 20 nM
- DeltaCp [10]: -0.57 kcal/mol/K
- deltaG [11]: -10.3 kcal/mol

SMILES: CC[C@H](C)[C@@H]1NC(=O)[C@H](CC(=O)O)NC(=O)[C@@H](NC(C)=O)CSSC[C@@H]2NC(=O)[C@H](CCCCNC(=O)C[C@@H](C(=O)N[C@@H](CC(C)C)C(N)=O)NC(=O)[C@H](CCC(=O)O)NC(=O)[C@H](Cc3ccccc3)NC2=O)NC(=O)[C@H](Cc2c[nH]c3ccccc23)NC(=O)[C@H](CCC(=O)O)NC(=O)[C@H](Cc2c[nH]c3ccccc23)NC(=O)[C@H](CCCCNC(=O)CCOCCOCCOCCOCCOCCOCCOCCOCCOCCOCCOCCOCCOCCOCCOCCOCCOCCOCCOCCOCCOCCC(=O)NCCCC[C@@H]2NC(=O)[C@H](C(C)C)NC(=O)[C@H](Cc3cnc[nH]3)NC(=O)[C@H]([C@@H](C)CC)NC(=O)[C@H](CC(=O)O)NC(=O)[C@@H](NC(C)=O)CSSC[C@@H]3NC(=O)[C@H](CCCCNC(=O)C[C@@H](C(=O)N[C@@H](CC(C)C)C(N)=O)NC(=O)[C@H](CCC(=O)O)NC(=O)[C@H](Cc4ccccc4)NC3=O)NC(=O)[C@H](Cc3c[nH]c4ccccc34)NC(=O)[C@H](CCC(=O)O)NC(=O)[C@H](Cc3c[nH]c4ccccc34)NC2=O)NC(=O)[C@H](C(C)C)NC(=O)[C@H](Cc2cnc[nH]2)NC1=O (I: Ac-CDIHVKWEWKCFEDL-NH2 / II: Ac-CDIHVKWEWKCFEDL-NH2; disulfide I:1-I:11, II:1-II:11; linker I:6-II:6 via X3; lactam I:10-I:14, II:10-II:14)
- deltaG [1]: -10.5 kcal/mol
- -TdeltaS [2]: 26.1 kcal/mol
- -TdeltaS [3]: 40.7 kcal/mol
- Kd [5]: 37 nM
- deltaH [6]: -36.6 kcal/mol
- deltaH [7]: -51.3 kcal/mol
- Kd [9]: 15 nM
- DeltaCp [10]: -0.86 kcal/mol/K
- deltaG [11]: -10.5 kcal/mol

SMILES: COc1ccc([C@H]2CNC(=O)C2)cc1OC1CCCC1 [S-ROLIPRAM]
- -TdeltaS [2]: 17 kcal/mol
- deltaH [6]: -29.3 kcal/mol
- deltaG [11]: -12.3 kcal/mol
